pIC50: −log10 of the molar value.
Tested on: 521955-158-R2-J5-PDC complex spheroids, viability
Experiment: Anticancer human tumor 521955-158-R2-J5-PDC patient-derived pancreatic carcinoma cell line growth inhibition [RAS]
Conditions: for pIC50: curve of first compound; for viability, T/C: stronger effect = lower value
Outline: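 Agents were tested in combination matrices in half-log decrements from a top concentration at or near clinical Cmax (10 microM if undetermined). Targets were multi-cell spheroids of tumour lines plus HUVEC and MSC stromal cells.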
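Also: compound exposure lasted seven days before the viability read.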
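For viability, T/C in this document: spheroids also contain HUVEC endothelial cells and mesenchymal stem cells as stroma.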

Question: Which results are given for C[C@@H](NC(=O)c1ncnc(N)c1Cl)c1ncc(C(=O)Nc2cc(C(F)(F)F)c(Cl)cn2)s1 + C#Cc1c(F)ccc2cc(O)cc(-c3ncc4c(N5CC6CCC(C5)N6)nc(OCC56CCCN5CC(F)C6)nc4c3F)c12?
Answer: pIC50 (second compound 0.0316 µM): < 5.00; pIC50 (second compound 0.1 µM): 6.27; pIC50 (second compound 0.316 µM): 5.48; pIC50 (second compound 1 µM): 6.31; pIC50 (second compound 3.16 µM): > 7.50; pIC50 (second compound 10 µM): > 7.50; viability, T/C (second compound 0.0316 µM, first compound 0.0316 µM): 57.8%; viability, T/C (second compound 0.0316 µM, first compound 0.1 µM): 58.3%; viability, T/C (second compound 0.0316 µM, first compound 0.316 µM): 59.8%; viability, T/C (second compound 0.0316 µM, first compound 1 µM): 54.3%; viability, T/C (second compound 0.0316 µM, first compound 3.16 µM): 57.4%; viability, T/C (second compound 0.0316 µM, first compound 10 µM): 46%; viability, T/C (second compound 0.1 µM, first compound 0.0316 µM): 65.5%; viability, T/C (second compound 0.1 µM, first compound 0.1 µM): 58.3%; viability, T/C (second compound 0.1 µM, first compound 0.316 µM): 46.9%; viability, T/C (second compound 0.1 µM, first compound 1 µM): 47.3%; viability, T/C (second compound 0.1 µM, first compound 3.16 µM): 57.2%; viability, T/C (second compound 0.1 µM, first compound 10 µM): 42.3%; viability, T/C (second compound 0.316 µM, first compound 0.0316 µM): 62%; viability, T/C (second compound 0.316 µM, first compound 0.1 µM): 55.7%; viability, T/C (second compound 0.316 µM, first compound 0.316 µM): 58.4%; viability, T/C (second compound 0.316 µM, first compound 1 µM): 53.2%; viability, T/C (second compound 0.316 µM, first compound 3.16 µM): 52.4%; viability, T/C (second compound 0.316 µM, first compound 10 µM): 37.9%; viability, T/C (second compound 1 µM, first compound 0.0316 µM): 61.2%; viability, T/C (second compound 1 µM, first compound 0.1 µM): 48.4%; viability, T/C (second compound 1 µM, first compound 0.316 µM): 47.5%; viability, T/C (second compound 1 µM, first compound 1 µM): 51%; viability, T/C (second compound 1 µM, first compound 3.16 µM): 45.3%; viability, T/C (second compound 1 µM, first compound 10 µM): 33.5%; viability, T/C (second compound 3.16 µM, first compound 0.0316 µM): 51.3%; viability, T/C (second compound 3.16 µM, first compound 0.1 µM): 49.1%; viability, T/C (second compound 3.16 µM, first compound 0.316 µM): 36.6%; viability, T/C (second compound 3.16 µM, first compound 1 µM): 54.4%; viability, T/C (second compound 3.16 µM, first compound 3.16 µM): 43.5%; viability, T/C (second compound 3.16 µM, first compound 10 µM): 32.7%; viability, T/C (second compound 10 µM, first compound 0.0316 µM): 41.1%; viability, T/C (second compound 10 µM, first compound 0.1 µM): 38.2%; viability, T/C (second compound 10 µM, first compound 0.316 µM): 37.3%; viability, T/C (second compound 10 µM, first compound 1 µM): 37.5%; viability, T/C (second compound 10 µM, first compound 3.16 µM): 35.1%; viability, T/C (second compound 10 µM, first compound 10 µM): 22.8%

Question: What does the source list for CC(C)NCC(C(=O)N1CCN(c2ncnc3c2C(C)CC3O)CC1)c1ccc(Cl)cc1 (centres undefined) + CCn1c(-c2cccnc2C(C)OC)c2c3cc(ccc31)N1CCOC(CC(NC(=O)C(C(C)C)N(C)C(=O)C3(F)CCN(C(=O)C#CC(C)(C)N(C)C)CC3)C(=O)N3CCCC(N3)C(=O)OCC(C)(C)C2)C1?
Answer: pIC50 (second compound 0.000949 µM): < 5.00; pIC50 (second compound 0.003 µM): < 5.00; pIC50 (second compound 0.00949 µM): < 5.00; pIC50 (second compound 0.03 µM): < 5.00; pIC50 (second compound 0.0949 µM): < 5.00; pIC50 (second compound 0.3 µM): 5.06; viability, T/C (second compound 0.000949 µM, first compound 0.0316 µM): 84.8%; viability, T/C (second compound 0.000949 µM, first compound 0.1 µM): 85.3%; viability, T/C (second compound 0.000949 µM, first compound 0.316 µM): 84.9%; viability, T/C (second compound 0.000949 µM, first compound 1 µM): 62.7%; viability, T/C (second compound 0.000949 µM, first compound 3.16 µM): 68%; viability, T/C (second compound 0.000949 µM, first compound 10 µM): 72%; viability, T/C (second compound 0.003 µM, first compound 0.0316 µM): 81.6%; viability, T/C (second compound 0.003 µM, first compound 0.1 µM): 92.5%; viability, T/C (second compound 0.003 µM, first compound 0.316 µM): 77.4%; viability, T/C (second compound 0.003 µM, first compound 1 µM): 56.1%; viability, T/C (second compound 0.003 µM, first compound 3.16 µM): 62.4%; viability, T/C (second compound 0.003 µM, first compound 10 µM): 79.1%; viability, T/C (second compound 0.00949 µM, first compound 0.0316 µM): 88.7%; viability, T/C (second compound 0.00949 µM, first compound 0.1 µM): 91.7%; viability, T/C (second compound 0.00949 µM, first compound 0.316 µM): 78.7%; viability, T/C (second compound 0.00949 µM, first compound 1 µM): 53%; viability, T/C (second compound 0.00949 µM, first compound 3.16 µM): 60.1%; viability, T/C (second compound 0.00949 µM, first compound 10 µM): 68%; viability, T/C (second compound 0.03 µM, first compound 0.0316 µM): 83.9%; viability, T/C (second compound 0.03 µM, first compound 0.1 µM): 100%; viability, T/C (second compound 0.03 µM, first compound 0.316 µM): 83%; viability, T/C (second compound 0.03 µM, first compound 1 µM): 57.5%; viability, T/C (second compound 0.03 µM, first compound 3.16 µM): 68.3%; viability, T/C (second compound 0.03 µM, first compound 10 µM): 56.8%; viability, T/C (second compound 0.0949 µM, first compound 0.0316 µM): 93.6%; viability, T/C (second compound 0.0949 µM, first compound 0.1 µM): 92%; viability, T/C (second compound 0.0949 µM, first compound 0.316 µM): 82.4%; viability, T/C (second compound 0.0949 µM, first compound 1 µM): 64.3%; viability, T/C (second compound 0.0949 µM, first compound 3.16 µM): 61.3%; viability, T/C (second compound 0.0949 µM, first compound 10 µM): 59.9%; viability, T/C (second compound 0.3 µM, first compound 0.0316 µM): 67.2%; viability, T/C (second compound 0.3 µM, first compound 0.1 µM): 76.6%; viability, T/C (second compound 0.3 µM, first compound 0.316 µM): 67.9%; viability, T/C (second compound 0.3 µM, first compound 1 µM): 57.2%; viability, T/C (second compound 0.3 µM, first compound 3.16 µM): 57.4%; viability, T/C (second compound 0.3 µM, first compound 10 µM): 49.6%
